Patent publication EP0942911B1, “BENZOPYRANOPYRROLE AND BENZOPYRANOPYRIDINE ALPHA-1 ADRENERGIC COMPOUNDS” (Abbott Laboratories, priority 1996, dated 1998)
pKi: −log10 of the molar value. Counter-ions that a name gives are not always drawn. Like-named read-outs stand apart in the source and are kept apart here.

Key:
Experiment in all cases: biochemical
[1] = target: T1, α-1d adrenoreceptor (Rattus norvegicus, UniProt P23944); type: binding; details: for Ki: read-out: Radioligand Binding (Ki, nM) 1d (Rat)
T1 sequence (P23944 1-561): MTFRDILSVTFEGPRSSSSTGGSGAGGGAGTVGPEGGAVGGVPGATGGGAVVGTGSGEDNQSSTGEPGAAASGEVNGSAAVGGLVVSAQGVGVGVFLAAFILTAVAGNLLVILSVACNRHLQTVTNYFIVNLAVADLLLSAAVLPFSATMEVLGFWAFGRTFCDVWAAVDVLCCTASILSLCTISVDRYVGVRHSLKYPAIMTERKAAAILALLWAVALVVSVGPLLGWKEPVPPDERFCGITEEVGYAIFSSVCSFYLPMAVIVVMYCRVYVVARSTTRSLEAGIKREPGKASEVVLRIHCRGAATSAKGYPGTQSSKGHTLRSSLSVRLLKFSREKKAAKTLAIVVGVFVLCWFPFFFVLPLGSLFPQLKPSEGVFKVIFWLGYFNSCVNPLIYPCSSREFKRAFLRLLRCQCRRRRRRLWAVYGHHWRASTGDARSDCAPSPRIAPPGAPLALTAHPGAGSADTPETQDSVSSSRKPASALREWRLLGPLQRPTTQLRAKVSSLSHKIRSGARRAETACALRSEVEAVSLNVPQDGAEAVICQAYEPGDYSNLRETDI
Outline: (§1)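 Affinities are from radioligand binding on membranes of mouse LTK fibroblast clones stably expressing each cloned α-1 subtype; rat submaxillary gland served as native α-1A tissue.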

[2] = target: T2, α-1A adrenoreceptor (rat submaxillary gland) (Rattus norvegicus, UniProt P43140); type: binding; details: for Ki: read-out: Radioligand Binding (Ki, nM) 1A (Rat)
T2 sequence (P43140 1-466): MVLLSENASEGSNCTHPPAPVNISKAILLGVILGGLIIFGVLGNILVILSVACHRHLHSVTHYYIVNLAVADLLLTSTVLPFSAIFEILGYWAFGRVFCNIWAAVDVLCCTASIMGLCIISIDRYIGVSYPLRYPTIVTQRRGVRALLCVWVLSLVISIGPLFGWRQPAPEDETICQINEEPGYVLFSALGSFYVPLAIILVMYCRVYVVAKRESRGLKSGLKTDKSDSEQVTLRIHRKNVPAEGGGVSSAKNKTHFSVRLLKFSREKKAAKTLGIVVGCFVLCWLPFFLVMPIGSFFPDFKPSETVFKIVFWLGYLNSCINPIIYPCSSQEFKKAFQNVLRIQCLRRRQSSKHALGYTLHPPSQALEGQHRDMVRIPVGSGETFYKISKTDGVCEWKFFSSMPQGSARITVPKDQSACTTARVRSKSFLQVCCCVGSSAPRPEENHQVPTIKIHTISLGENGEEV
Outline: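 Radioligand binding to α-1A sites in membrane homogenates of rat submaxillary gland, run after Greengrass and Bremner. Bound radioactivity counted by liquid scintillation.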

[3] = target: T3, α-1a adrenoreceptor (Bos taurus, UniProt P18130); type: binding, bovine; details: for Ki: read-out: Radioligand Binding (Ki, nM) 1a (Bovine)
T3 sequence (P18130 1-466): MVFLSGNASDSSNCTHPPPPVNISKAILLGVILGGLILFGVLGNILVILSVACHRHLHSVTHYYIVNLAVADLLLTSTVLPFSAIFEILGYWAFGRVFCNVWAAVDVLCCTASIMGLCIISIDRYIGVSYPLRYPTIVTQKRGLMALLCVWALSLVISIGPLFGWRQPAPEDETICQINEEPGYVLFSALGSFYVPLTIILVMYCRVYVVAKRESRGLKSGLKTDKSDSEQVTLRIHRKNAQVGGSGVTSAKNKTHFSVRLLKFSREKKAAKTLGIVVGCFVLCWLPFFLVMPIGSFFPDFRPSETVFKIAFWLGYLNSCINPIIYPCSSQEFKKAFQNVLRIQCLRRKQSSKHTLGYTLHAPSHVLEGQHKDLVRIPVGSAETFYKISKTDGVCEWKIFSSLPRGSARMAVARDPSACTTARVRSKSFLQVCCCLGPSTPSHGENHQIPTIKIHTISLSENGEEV
Outline: as §1

[4] = [3H]-prazosin radioligand, cloned receptor in LTK cell membranes
[5] = [3H]-prazosin radioligand, rat submaxillary gland membranes

Compound | Ki [1, 4] [nM] | Ki [2, 5] [nM] | Ki [3, 4] [nM] | Ki [1] [nM] | Ki [2] [nM] | Ki [3] [nM] | further results
3-[4-((3aR,9bR)-cis-9-Methoxy-1,2,3,3a,4,9b-hexahydro-[1]-benzopyrano[3,4-c]pyrrol-2-yl]butyl]-7-methoxy-pyrido[3',2':4,5]thieno[3,2-d]pyrimidine-2,4(1H,3H)-dione hydrochloride [Example 33] | 0.701 | 0.811 | 0.082 |  |  |  | 
COc1ccc2c(c1)OC[C@H]1CN(CCn3c(=O)[nH]c4c(sc5ccccc54)c3=O)C[C@@H]21.Cl (racemic) [Example 63, 3-[2-((±)-cis-7-Methoxy-1,2,3,3a,4,9b-hexahydro-[1]-benzopyrano[3,4-c]pyrrol-2-yl)ethyl]-[1]benzthieno[3,2-d]pyrimidine-2,4(1H,3H)-dione hydrochloride] |  |  |  | 70.1 | 51.2 | 11.2 | 
COc1ccc2c(c1)OC[C@H]1CN(CCCn3c(=O)[nH]c4c(sc5ccccc54)c3=O)C[C@@H]21.Cl (racemic) [Example 64, 3-[3-((±)-cis-7-Methoxy-1,2,3,3a,4,9b-hexahydro-[1]-benzopyrano[3,4-c]pyrrol-2-yl)propyl]-[1]benzthieno[3,2-d]pyrimidine-2,4(1H,3H)-dione hydrochloride] |  |  |  | 10.4 | 4.2 | 1.63 | 
COc1cccc2c1[C@@H]1CN(CCn3c(=O)[nH]c4c(sc5ccccc54)c3=O)C[C@@H]1CO2.Cl (racemic) [Example 65, 3-[2-((±)-cis-9-Methoxy-1,2,3,3a,4,9b-hexahydro-[1]-benzopyrano[3,4-c]pyrrol-2-yl)ethyl]-[1]benzthieno[3,2-d]pyrimidine-2,4(1H,3H)-dione hydrochloride] |  |  |  | 25 | 15 | 1.82 | 
COc1cccc2c1[C@@H]1CN(CCCn3c(=O)[nH]c4c(sc5ccccc54)c3=O)C[C@@H]1CO2.Cl (racemic) [Example 66, 3-[3-((±)-cis-9-Methoxy-1,2,3,3a,4,9b-hexahydro-[1]-benzopyrano[3,4-c]pyrrol-2-yl)propyl]-[1]benzthieno[3,2-d]pyrimidine-2,4(1H,3H)-dione hydrochloride] |  |  |  | 87.7 | 214 | 24.8 | 
COc1cccc2c1OC[C@H]1CN(CCn3c(=O)[nH]c4c(sc5ccccc54)c3=O)C[C@@H]21.Cl (racemic) [Example 67, 3-[2-((±)-cis-6-Methoxy-1,2,3,3a,4,9b-hexahydro-[1]-benzopyrano[3,4-c]pyrrol-2-yl)ethyl]-[1]benzthieno[3,2-d]pyrimidine-2,4(1H,3H)-dione hydrochloride] |  |  |  | 65 | 116 | 77.2 | 
COc1cccc2c1OC[C@H]1CN(CCCn3c(=O)[nH]c4c(sc5ccccc54)c3=O)C[C@@H]21.Cl (racemic) [Example 68, 3-[3-((±)-cis-6-Methoxy-1,2,3,3a,4,9b-hexahydro-[1]-benzopyrano[3,4-c]pyrrol-2-yl)propyl]-[1]benzthieno[3,2-d]pyrimidine-2,4(1H,3H)-dione hydrochloride] |  |  |  | 42.5 | 40.6 | 7.82 | 
Cl.O=c1[nH]c2c(sc3ccccc32)c(=O)n1CCN1C[C@@H]2COc3ccccc3[C@@H]2C1 (racemic) [Example 69, 3-[2-((±)-cis-1,2,3,3a,4,9b-hexahydro-[1]-benzopyrano[3,4-c]pyrrol-2-yl)ethyl]-[1]benzthieno[3,2-d]pyrimidine-2,4(1H,3H)-dione hydrochloride] |  |  |  | 1.63 | 0.665 | 0.344 | 
O=c1[nH]c2c(sc3cccnc32)c(=O)n1CCCCN1C[C@@H]2COc3ccccc3[C@@H]2C1 (racemic) [Example 70, 3-[4-((±)-cis-1,2,3,3a,4,9b-hexahydro-[1]-benzopyrano[3,4-c]pyrrol-2-yl)butyl]-pyrido[2',3':4,5]thieno[3,2-d]pyrimidine-2,4(1H,3H)-dione dihydrochloride] |  |  |  | 0.482 | 0.17 | 0.082 | 
COc1cccc2c1[C@H]1CN(CCCCn3c(=O)[nH]c4c(sc5nccnc54)c3=O)C[C@@H]1CO2.Cl.Cl (racemic) [Example 74, 3-[4-((±)-trans-9-Methoxy-1,2,3,3a,4,9b-hexahydro-[1]-benzopyrano[3,4-c]pyrrol-2-yl)butyl]-pyrazino[2',3':4,5]thieno[3,2-d]pyrimidine-2,4(1H,3H)-dione dihydrochloride] |  |  |  | 2.94 | 3.29 | 1.53 | 
COc1cc2[nH]c(=O)n(CCCCN3C[C@@H]4COc5ccccc5[C@@H]4C3)c(=O)c2cc1OC (racemic) [Example 81, 3-[4-((±1-cis-1,2,3,3a,4,9b-hexahydro-[1]-benzopyrano[3,4-c]pyrrol-2-yl)butyl]-6,7-dimethoxy-quinazoline-2,4(1H,3H)-dione hydrochloride] | 0.108 | 0.045 | 0.052 |  |  |  | 
COc1cccc2c1[C@@H]1CCN(CCCCn3c(=O)[nH]c4c(sc5ncccc54)c3=O)C[C@H]1CO2 (racemic) [Example 85, 3-[4-((±)-trans-10-Methoxy-1,3,4,4a,5,10b-hexahydro-2H-[1]-benzopyrano[3,4-c]pyrido-3-yl)butyl]-pyrido[3',2':4,5]thieno[3,2-d]pyrimidine-2,4(1H,3H)-dione dihydrochloride] | 0.566 | 0.419 | 0.336 |  |  |  | 
COc1cnc2sc3c(=O)n(CCCCN4CC5COc6cccc(OC)c6[C@@H]5C4)c(=O)[nH]c3c2n1.Cl (stereo in doubt) [Example 43, 3-[4-((3aS,9bR)-trans-9-Methoxy-1,2,3,3a,4,9b-hexahydro-[1]-benzopyrano[3,4-c]pyrrol-2-yl)butyl]-8-methoxy-pyrazino[2',3':4,5]thieno[3,2-d]pyrimidine-2,4(1H,3H)-dione hydrochloride] | 0.063 | 0.114 | 0.037 |  |  |  | 
COc1cc2nc(N3CCN(C(=O)C4COc5ccccc5O4)CC3)nc(N)c2cc1OC (stereo not drawn) [Doxazosin, doxazosin, reference compound] |  |  |  |  |  |  | pKi [1]: 9.64; pKi [2]: 9.37; pKi [3]: 9.04
COc1cccc2c1[C@@H]1CN(CCCCn3c(=O)[nH]c4c(sc5cccnc54)c3=O)C[C@@H]1CO2 [Example 1, 3-[4-((3aR,9bR)-cis-9-Methoxy-1,2,3,3a,4,9b-hexahydro-[1]-benzopyrano[3,4-c]pyrrol-2-yl)butyl]-pyrido[2',3':4,5]thieno[3,2-d]pyrimidine-2,4(1H,3H)-dione hydrochloride] | 0.223 | 0.045 | 0.024 |  |  |  | 
COc1cccc2c1[C@H]1CN(CCCCn3c(=O)[nH]c4c(sc5cccnc54)c3=O)C[C@H]1CO2 [Example 2, 3-[4-((3aS,9bS)-cis-9-Methoxy-1,2,3,3a,4,9b-hexahydro-[1]-benzopyrano[3,4-c]pyrrol-2-yl)butyl]-pyrido[2',3':4,5]thieno[3,2-d]pyrimidine-2,4(1H,3H)-dione hydrochloride] | 2.72 | 0.95 | 0.193 |  |  |  | 
COc1cccc2c1[C@@H]1CN(CCCCn3c(=O)[nH]c4c(sc5cccnc54)c3=O)C[C@H]1CO2 [Example 3, 3-[4-((3aS,9bR)-trans-9-Methoxy-1,2,3,3a,4,9b-hexahydro-[1]-benzopyrano[3,4-c]pyrrol-2-yl)butyl]-pyrido[2',3':4,5]thieno[3,2-d]pyrimidine-2,4(1H,3H)-dione hydrochloride] | 0.041 | 0.026 | 0.02 |  |  |  | 
